Laboratory results: ChEMBL document CHEMBL4118086, “Potential of PI3Kβ Inhibitors in the Treatment of Cancer and Other Diseases” (ACS Med Chem Lett, 2017)

Tests used:
[1] = target: T1, Phosphatidylinositol 4,5-bisphosphate 3-kinase catalytic subunit beta isoform (Homo sapiens, UniProt P42338); assay: Inhibition of PI3Kbeta in human PC3 cells assessed as reduction in AKT phosphorylation at S473 residue measured after 60 mins by ELISA; assay type: cell-based
[2] = target: T1, Phosphatidylinositol 4,5-bisphosphate 3-kinase catalytic subunit beta isoform; assay: Inhibition of PI3Kbeta in human PC3 cells assessed as reduction in AKT phosphorylation at Thr308 residue measured after 60 mins by ELISA; assay type: cell-based
[3] = target: Serine/threonine-protein kinase mTOR (Homo sapiens, UniProt P42345); assay: Binding affinity to wild-type human MTOR (L1382 to W2549 residues) expressed in mammalian expression system by KINOMEScan assay
[4] = target: Phosphatidylinositol 4,5-bisphosphate 3-kinase catalytic subunit gamma isoform (Homo sapiens, UniProt P48736); assay: Binding affinity to wild-type human PIK3Cgamma (S144 to A1102 residues) expressed in mammalian expression system by KINOMEScan assay
[5] = target: T2, Phosphatidylinositol 4,5-bisphosphate 3-kinase catalytic subunit delta isoform (Homo sapiens, UniProt O00329); assay: Binding affinity to wild-type human PIK3Cdelta (R108 to Q1044 residues) expressed in mammalian expression system by KINOMEScan assay
T2 sequence (O00329 whole entry): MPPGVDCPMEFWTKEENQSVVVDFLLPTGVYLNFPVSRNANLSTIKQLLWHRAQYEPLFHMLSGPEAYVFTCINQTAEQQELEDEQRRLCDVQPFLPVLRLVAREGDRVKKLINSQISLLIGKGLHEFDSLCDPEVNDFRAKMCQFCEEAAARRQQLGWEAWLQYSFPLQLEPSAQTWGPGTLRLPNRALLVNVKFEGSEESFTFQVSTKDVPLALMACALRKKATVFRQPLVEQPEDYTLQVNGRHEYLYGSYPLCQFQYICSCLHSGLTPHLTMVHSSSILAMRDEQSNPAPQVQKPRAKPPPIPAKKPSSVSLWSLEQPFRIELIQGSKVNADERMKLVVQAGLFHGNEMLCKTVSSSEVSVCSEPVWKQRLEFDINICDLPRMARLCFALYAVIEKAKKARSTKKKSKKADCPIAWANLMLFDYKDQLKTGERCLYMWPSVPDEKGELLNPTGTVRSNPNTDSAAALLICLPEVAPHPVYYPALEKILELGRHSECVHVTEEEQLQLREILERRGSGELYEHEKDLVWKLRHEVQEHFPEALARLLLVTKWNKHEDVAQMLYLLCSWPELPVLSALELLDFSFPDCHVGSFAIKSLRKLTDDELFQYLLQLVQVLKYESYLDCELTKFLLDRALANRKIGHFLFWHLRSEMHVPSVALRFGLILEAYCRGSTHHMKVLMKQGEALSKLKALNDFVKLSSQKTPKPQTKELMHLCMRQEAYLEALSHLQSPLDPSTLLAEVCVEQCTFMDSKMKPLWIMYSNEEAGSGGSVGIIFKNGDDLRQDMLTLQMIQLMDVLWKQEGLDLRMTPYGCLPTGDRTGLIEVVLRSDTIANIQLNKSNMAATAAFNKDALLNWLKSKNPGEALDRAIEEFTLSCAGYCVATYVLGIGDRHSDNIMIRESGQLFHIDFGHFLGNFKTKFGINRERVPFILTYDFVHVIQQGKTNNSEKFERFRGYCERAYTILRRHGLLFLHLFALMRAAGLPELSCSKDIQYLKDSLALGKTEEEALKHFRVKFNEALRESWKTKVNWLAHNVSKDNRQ

[6] = target: T1, Phosphatidylinositol 4,5-bisphosphate 3-kinase catalytic subunit beta isoform; assay: Binding affinity to wild-type human PIK3Cbeta (P118 to S1070 residues) expressed in mammalian expression system by KINOMEScan assay
[7] = target: Phosphatidylinositol 4,5-bisphosphate 3-kinase catalytic subunit alpha isoform (Homo sapiens, UniProt P42336); assay: Binding affinity to wild-type human PIK3Calpha (R108 to N1068 residues) expressed in mammalian expression system by KINOMEScan assay
Sequence of Phosphatidylinositol 4,5-bisphosphate 3-kinase catalytic subunit alpha isoform (P42336 whole entry, the tested form may be a part, canonical isoform): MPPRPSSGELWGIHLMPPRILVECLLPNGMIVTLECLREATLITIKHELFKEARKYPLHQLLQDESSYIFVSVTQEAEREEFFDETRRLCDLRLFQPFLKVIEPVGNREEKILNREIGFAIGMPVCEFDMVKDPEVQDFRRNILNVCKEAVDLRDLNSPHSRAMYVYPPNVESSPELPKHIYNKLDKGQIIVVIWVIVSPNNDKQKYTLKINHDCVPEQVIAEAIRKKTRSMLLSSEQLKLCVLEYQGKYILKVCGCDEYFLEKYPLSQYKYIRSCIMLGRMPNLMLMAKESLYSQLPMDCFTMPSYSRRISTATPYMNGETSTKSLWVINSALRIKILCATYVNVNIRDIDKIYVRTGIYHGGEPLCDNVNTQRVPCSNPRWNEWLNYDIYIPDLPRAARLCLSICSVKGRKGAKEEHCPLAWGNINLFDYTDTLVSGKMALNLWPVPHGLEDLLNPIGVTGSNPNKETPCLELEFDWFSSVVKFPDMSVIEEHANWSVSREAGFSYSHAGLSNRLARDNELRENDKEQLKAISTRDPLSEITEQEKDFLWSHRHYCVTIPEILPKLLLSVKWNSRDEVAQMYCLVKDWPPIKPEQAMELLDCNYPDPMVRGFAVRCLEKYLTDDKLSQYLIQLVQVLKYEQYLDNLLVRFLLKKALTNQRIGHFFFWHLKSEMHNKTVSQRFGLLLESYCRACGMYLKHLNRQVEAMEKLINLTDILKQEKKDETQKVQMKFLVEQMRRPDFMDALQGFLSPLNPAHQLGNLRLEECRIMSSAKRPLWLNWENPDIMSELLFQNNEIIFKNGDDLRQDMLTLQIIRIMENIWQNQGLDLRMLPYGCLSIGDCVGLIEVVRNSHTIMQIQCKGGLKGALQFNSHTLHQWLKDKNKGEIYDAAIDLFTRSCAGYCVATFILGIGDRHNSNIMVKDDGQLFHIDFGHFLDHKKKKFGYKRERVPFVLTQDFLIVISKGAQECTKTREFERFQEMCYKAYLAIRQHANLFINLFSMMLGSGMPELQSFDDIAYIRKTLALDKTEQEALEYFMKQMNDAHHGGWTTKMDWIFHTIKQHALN

T1 sequence (P42338 whole entry, canonical isoform): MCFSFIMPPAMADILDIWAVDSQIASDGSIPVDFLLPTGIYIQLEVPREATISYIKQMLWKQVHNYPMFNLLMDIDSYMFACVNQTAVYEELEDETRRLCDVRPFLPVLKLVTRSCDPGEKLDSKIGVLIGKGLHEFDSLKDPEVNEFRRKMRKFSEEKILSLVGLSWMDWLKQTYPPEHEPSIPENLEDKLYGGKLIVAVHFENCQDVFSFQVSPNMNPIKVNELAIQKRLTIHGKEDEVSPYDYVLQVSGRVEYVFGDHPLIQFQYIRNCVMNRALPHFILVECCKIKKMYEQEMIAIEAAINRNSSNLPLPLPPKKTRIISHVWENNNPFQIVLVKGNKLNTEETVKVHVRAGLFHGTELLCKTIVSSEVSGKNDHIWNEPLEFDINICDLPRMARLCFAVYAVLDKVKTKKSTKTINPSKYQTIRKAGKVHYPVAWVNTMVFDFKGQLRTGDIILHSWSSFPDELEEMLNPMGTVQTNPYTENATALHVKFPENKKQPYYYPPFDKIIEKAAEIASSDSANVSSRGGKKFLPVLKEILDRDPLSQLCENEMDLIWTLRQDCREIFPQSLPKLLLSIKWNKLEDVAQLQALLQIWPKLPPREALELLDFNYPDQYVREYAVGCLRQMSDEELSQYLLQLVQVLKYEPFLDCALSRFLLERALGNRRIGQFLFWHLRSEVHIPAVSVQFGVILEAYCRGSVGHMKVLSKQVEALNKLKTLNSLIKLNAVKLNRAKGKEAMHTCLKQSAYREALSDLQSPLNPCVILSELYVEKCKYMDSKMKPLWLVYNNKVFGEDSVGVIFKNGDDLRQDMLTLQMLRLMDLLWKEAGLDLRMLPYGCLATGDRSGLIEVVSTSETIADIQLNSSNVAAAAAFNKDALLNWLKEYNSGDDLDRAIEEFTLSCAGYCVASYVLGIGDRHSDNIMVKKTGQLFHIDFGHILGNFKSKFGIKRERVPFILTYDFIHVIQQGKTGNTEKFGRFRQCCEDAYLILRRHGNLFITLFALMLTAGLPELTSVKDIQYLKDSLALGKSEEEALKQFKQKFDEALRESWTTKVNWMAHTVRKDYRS
Sequence of Phosphatidylinositol 4,5-bisphosphate 3-kinase catalytic subunit gamma isoform (P48736 whole entry, the tested form may be a part, canonical isoform): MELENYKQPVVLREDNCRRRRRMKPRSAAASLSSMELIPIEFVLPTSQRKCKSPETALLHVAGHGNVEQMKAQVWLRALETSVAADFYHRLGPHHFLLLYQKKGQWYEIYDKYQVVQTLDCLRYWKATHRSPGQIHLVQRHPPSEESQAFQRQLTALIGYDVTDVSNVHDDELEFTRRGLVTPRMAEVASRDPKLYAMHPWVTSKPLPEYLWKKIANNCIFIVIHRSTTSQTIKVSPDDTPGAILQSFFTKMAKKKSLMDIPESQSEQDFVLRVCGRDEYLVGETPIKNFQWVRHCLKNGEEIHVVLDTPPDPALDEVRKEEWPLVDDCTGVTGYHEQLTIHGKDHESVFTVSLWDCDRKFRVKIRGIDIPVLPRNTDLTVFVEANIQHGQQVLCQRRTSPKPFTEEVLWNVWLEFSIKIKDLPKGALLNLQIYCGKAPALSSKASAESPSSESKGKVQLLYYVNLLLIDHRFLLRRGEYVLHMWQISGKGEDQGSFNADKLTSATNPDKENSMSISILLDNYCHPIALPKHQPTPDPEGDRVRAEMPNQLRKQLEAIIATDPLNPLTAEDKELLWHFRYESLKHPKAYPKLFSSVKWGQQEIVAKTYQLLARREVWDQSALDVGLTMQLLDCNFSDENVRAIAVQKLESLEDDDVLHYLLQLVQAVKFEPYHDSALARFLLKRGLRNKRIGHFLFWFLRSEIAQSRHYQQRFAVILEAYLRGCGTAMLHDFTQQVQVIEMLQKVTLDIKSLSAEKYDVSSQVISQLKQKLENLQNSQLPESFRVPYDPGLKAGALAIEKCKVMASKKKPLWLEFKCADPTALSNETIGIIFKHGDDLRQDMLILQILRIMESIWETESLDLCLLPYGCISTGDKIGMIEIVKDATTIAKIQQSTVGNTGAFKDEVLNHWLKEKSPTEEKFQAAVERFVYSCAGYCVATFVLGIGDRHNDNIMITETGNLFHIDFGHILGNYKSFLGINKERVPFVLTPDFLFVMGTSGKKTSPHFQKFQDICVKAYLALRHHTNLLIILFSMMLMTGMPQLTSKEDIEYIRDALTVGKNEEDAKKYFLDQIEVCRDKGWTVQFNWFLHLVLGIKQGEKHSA

SMILES	IC50 [1] [nM]	IC50 [2] [nM]	Kd [3] [nM]	Kd [4] [nM]	Kd [5] [nM]	Kd [6] [nM]	Kd [7] [nM]
C[C@@H](Nc1cccc(F)c1)c1cc(C(=O)NCCO)cc2ncc(N3CCOCC3)nc12	49	44	17100	3410	324	3	1100
C[C@H](Nc1cc(F)cc(F)c1)c1cc(C(=O)NCCN(C)C)cc2ncc(N3CCOCC3)nc12	331	148	> 30200	–	–	–	–
C[C@H](Nc1cccc(F)c1)c1cc(C(=O)NCCO)cc2ncc(N3CCOCC3)nc12	> 513	> 513	> 30200	–	–	–	–
CN(C)C(=O)c1cc([C@H]2CCCN2c2cc(F)cc(F)c2)c2nc(N3CCOCC3)cnc2c1	2	3	28200	313	15	0.3	34
CNCCNC(=O)c1cc(C(C)Nc2cccc(F)c2)c2nc(N3CCOCC3)cnc2c1 (racemic)	7	6	–	–	–	–	–
CN(C)C(=O)c1cc(C2CCCN2c2cc(F)cc(F)c2)c2nc(N3CCOCC3)cnc2c1 (racemic)	4	1.35	> 30200	–	–	–	–

Continued, in another order:

IC50 [1] [nM]	IC50 [2] [nM]	Kd [3] [nM]	Kd [4] [nM]	SMILES	Kd [5] [nM]	Kd [6] [nM]	Kd [7] [nM]
> 513	> 513	> 30200	> 30200	CN(C)C(=O)c1cc([C@@H]2CCCN2c2cc(F)cc(F)c2)c2nc(N3CCOCC3)cnc2c1	–	–	–
9	9	17800	6610	Cc1c(F)cccc1NCc1cc(C(=O)NCCN(C)C)cc2ncc(N3CCOCC3)nc12	324	0.2	1910
2	2	–	–	C[C@@H](Nc1cc(F)cc(F)c1)c1cc(C(=O)NCCN(C)C)cc2ncc(N3CCOCC3)nc12	–	–	–
7	5	> 30200	214	C[C@@H]1CN(C(=O)c2cc(C3CCCN3c3cc(F)cc(F)c3)c3nc(N4CCOCC4)cnc3c2)C[C@H](C)N1 (mixture of isomers)	7	0.2	14
6	3	> 30200	–	CC(Nc1cc(F)cc(F)c1)c1cc(C(=O)NCCN(C)C)cc2ncc(N3CCOCC3)nc12 (racemic)	–	–	–
